From PubChem BioAssay (NCI)
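Briefly, cells in 96-well plates were exposed to five compound concentrations for 48 h, and endpoints were estimated by linear interpolation. TGI is the concentration that stops growth completely.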

Tests used:
Assay in all cases: inhibition of tumour cell growth, NCI panel, 48 h
[1] = system: SF-539 CNS
[2] = system: K-562 leukemia
[3] = system: BT-549 breast
[4] = system: SNB-75 CNS
[5] = system: CAKI-1 renal
[6] = system: OVCAR-5 ovarian
[7] = system: TK-10 renal
[8] = system: NCI-H226 lung
[9] = system: A549 NSCLC
[10] = system: OVCAR-3 ovarian
[11] = system: HCT-15 colon
[12] = system: RPMI-8226 leukemia
[13] = system: NCI/ADR-RES ovarian
[14] = system: UACC-62 melanoma
[15] = system: CCRF-CEM leukemia
[16] = system: OVCAR-8 ovarian
[17] = system: NCI-H23 lung
[18] = system: SF-295 CNS
[19] = system: HL-60(TB) leukemia
[20] = system: SR leukemia
[21] = system: MDA-MB-231 breast
[22] = system: SNB-19 CNS
[23] = system: HCT-116 colon
[24] = system: DU-145 prostate
[25] = system: PC-3 prostate
[26] = system: HOP-62 NSCLC
[27] = system: RXF 393 renal
[28] = system: SK-MEL-5 melanoma
[29] = system: IGROV1 ovarian
[30] = system: T-47D breast
[31] = system: MCF7 breast
[32] = system: UACC-257 melanoma
[33] = system: EKVX NSCLC
[34] = system: SK-MEL-2 melanoma
[35] = system: UO-31 renal
[36] = system: 786-0 renal
[37] = system: A498 renal
[38] = system: MOLT-4 leukemia
[39] = system: COLO 205 colon
[40] = system: ACHN renal
[41] = system: KM12 colon
[42] = system: NCI-H460 lung
[43] = system: SN12C renal
[44] = system: MDA-N
[45] = system: HT29 colon
[46] = system: HS 578T breast
[47] = system: SF-268 CNS
[48] = system: M14 melanoma
[49] = system: SW-620 colon
[50] = system: OVCAR-4 ovarian
[51] = system: SK-OV-3 ovarian
[52] = system: U251 CNS
[53] = system: HOP-92 NSCLC
[54] = system: HCC-2998 colon
[55] = system: SK-MEL-28 melanoma
[56] = system: LOX IMVI melanoma
[57] = system: MDA-MB-435
[58] = system: MALME-3M melanoma
[59] = system: NCI-H522 lung

SMILES: CCOC(=O)c1c(NC(=O)c2cccs2)sc2c1CCC2
- TGI [1]: > 100 µM
- TGI [2]: > 100 µM
- TGI [3]: > 100 µM
- TGI [4]: 26.2 µM
- TGI [5]: > 100 µM
- TGI [6]: > 100 µM
- TGI [7]: > 100 µM
- TGI [8]: > 100 µM
- TGI [9]: > 100 µM
- TGI [10]: > 100 µM
- TGI [11]: > 100 µM
- TGI [12]: > 100 µM
- TGI [13]: > 100 µM
- TGI [14]: > 100 µM
- TGI [15]: > 100 µM
- TGI [16]: > 100 µM
- TGI [17]: > 100 µM
- TGI [18]: > 100 µM
- TGI [19]: > 100 µM
- TGI [20]: > 100 µM
- TGI [21]: > 100 µM
- TGI [22]: > 100 µM
- TGI [23]: > 100 µM
- TGI [24]: > 100 µM
- TGI [25]: > 100 µM
- TGI [26]: > 100 µM
- TGI [27]: > 100 µM
- TGI [28]: > 100 µM
- TGI [29]: > 100 µM
- TGI [30]: > 100 µM
- TGI [31]: > 100 µM
- TGI [32]: > 100 µM
- TGI [33]: > 100 µM
- TGI [34]: > 100 µM
- TGI [35]: > 100 µM
- TGI [36]: > 100 µM
- TGI [37]: > 100 µM
- TGI [38]: > 100 µM
- TGI [39]: > 100 µM
- TGI [40]: > 100 µM
- TGI [41]: > 100 µM
- TGI [42]: > 100 µM
- TGI [43]: > 100 µM
- TGI [44]: > 100 µM
- TGI [45]: > 100 µM
- TGI [46]: > 100 µM
- TGI [47]: > 100 µM
- TGI [48]: > 100 µM

SMILES: CC(=N)OC1CC2CCC1(C)C2(C)C (configuration not stated)
- TGI [1]: > 100 µM
- TGI [2]: > 100 µM
- TGI [3]: > 100 µM
- TGI [4]: > 100 µM
- TGI [5]: > 100 µM
- TGI [6]: > 100 µM
- TGI [7]: > 100 µM
- TGI [8]: > 100 µM
- TGI [9]: > 100 µM
- TGI [10]: > 100 µM
- TGI [11]: > 100 µM
- TGI [12]: > 100 µM
- TGI [49]: > 100 µM
- TGI [50]: > 100 µM
- TGI [14]: > 100 µM
- TGI [51]: > 100 µM
- TGI [15]: > 100 µM
- TGI [52]: > 100 µM
- TGI [16]: > 100 µM
- TGI [17]: > 100 µM
- TGI [18]: > 100 µM
- TGI [53]: > 100 µM
- TGI [19]: > 100 µM
- TGI [20]: > 100 µM
- TGI [21]: > 100 µM
- TGI [23]: > 100 µM
- TGI [54]: > 100 µM
- TGI [24]: > 100 µM
- TGI [25]: > 100 µM
- TGI [26]: > 100 µM
- TGI [27]: > 100 µM
- TGI [28]: > 100 µM
- TGI [29]: > 100 µM
- TGI [30]: > 100 µM
- TGI [31]: > 100 µM
- TGI [32]: > 100 µM
- TGI [55]: > 100 µM
- TGI [33]: > 100 µM
- TGI [35]: > 100 µM
- TGI [36]: > 100 µM
- TGI [56]: > 100 µM
- TGI [37]: > 100 µM
- TGI [38]: > 100 µM
- TGI [39]: > 100 µM
- TGI [40]: > 100 µM
- TGI [41]: > 100 µM
- TGI [42]: > 100 µM
- TGI [43]: > 100 µM
- TGI [44]: > 100 µM
- TGI [45]: > 100 µM
- TGI [57]: > 100 µM
- TGI [58]: > 100 µM
- TGI [46]: > 100 µM
- TGI [47]: > 100 µM
- TGI [59]: > 100 µM
- TGI [48]: > 100 µM

SMILES: O=C(O)CCC(=O)Nc1ccc2ccccc2c1
- TGI [2]: > 100 µM
- TGI [3]: > 100 µM
- TGI [4]: > 100 µM
- TGI [5]: > 100 µM
- TGI [6]: > 100 µM
- TGI [7]: > 100 µM
- TGI [8]: > 100 µM
- TGI [9]: > 100 µM
- TGI [10]: > 100 µM
- TGI [11]: > 100 µM
- TGI [12]: > 100 µM
- TGI [49]: > 100 µM
- TGI [13]: > 100 µM
- TGI [50]: > 100 µM
- TGI [14]: > 100 µM
- TGI [51]: > 100 µM
- TGI [15]: > 100 µM
- TGI [52]: > 100 µM
- TGI [16]: > 100 µM
- TGI [17]: > 100 µM
- TGI [18]: > 100 µM
- TGI [53]: > 100 µM
- TGI [19]: > 100 µM
- TGI [21]: > 100 µM
- TGI [22]: > 100 µM
- TGI [23]: > 100 µM
- TGI [54]: > 100 µM
- TGI [24]: > 100 µM
- TGI [25]: > 100 µM
- TGI [26]: > 100 µM
- TGI [27]: > 100 µM
- TGI [28]: > 100 µM
- TGI [29]: > 100 µM
- TGI [30]: > 100 µM
- TGI [31]: > 100 µM
- TGI [32]: > 100 µM
- TGI [55]: > 100 µM
- TGI [33]: > 100 µM
- TGI [34]: > 100 µM
- TGI [35]: > 100 µM
- TGI [36]: > 100 µM
- TGI [56]: > 100 µM
- TGI [37]: > 100 µM
- TGI [38]: > 100 µM
- TGI [39]: > 100 µM
- TGI [40]: > 100 µM
- TGI [41]: > 100 µM
- TGI [42]: > 100 µM
- TGI [43]: > 100 µM
- TGI [44]: > 100 µM
- TGI [45]: > 100 µM
- TGI [57]: > 100 µM
- TGI [58]: > 100 µM
- TGI [46]: > 100 µM
- TGI [47]: > 100 µM
- TGI [59]: > 100 µM
- TGI [48]: > 100 µM

SMILES: O=C1CSSCC(=O)Nc2ccccc2N1
- TGI [1]: > 100 µM
- TGI [2]: > 100 µM
- TGI [3]: > 100 µM
- TGI [5]: > 100 µM
- TGI [6]: > 100 µM
- TGI [7]: > 100 µM
- TGI [8]: > 100 µM
- TGI [9]: > 100 µM
- TGI [10]: > 100 µM
- TGI [11]: > 100 µM
- TGI [12]: > 100 µM
- TGI [49]: > 100 µM
- TGI [13]: > 100 µM
- TGI [50]: > 100 µM
- TGI [14]: > 100 µM
- TGI [51]: > 100 µM
- TGI [15]: > 100 µM
- TGI [52]: > 100 µM
- TGI [16]: > 100 µM
- TGI [17]: > 100 µM
- TGI [18]: > 100 µM
- TGI [53]: > 100 µM
- TGI [19]: > 100 µM
- TGI [20]: > 100 µM
- TGI [21]: > 100 µM
- TGI [22]: > 100 µM
- TGI [23]: > 100 µM
- TGI [24]: > 100 µM
- TGI [25]: > 100 µM
- TGI [26]: > 100 µM
- TGI [27]: > 100 µM
- TGI [28]: > 100 µM
- TGI [29]: > 100 µM
- TGI [30]: > 100 µM
- TGI [32]: > 100 µM
- TGI [55]: > 100 µM
- TGI [33]: > 100 µM
- TGI [34]: > 100 µM
- TGI [35]: > 100 µM
- TGI [36]: > 100 µM
- TGI [56]: > 100 µM
- TGI [37]: > 100 µM
- TGI [38]: > 100 µM
- TGI [39]: > 100 µM
- TGI [40]: > 100 µM
- TGI [41]: > 100 µM
- TGI [42]: > 100 µM
- TGI [43]: > 100 µM
- TGI [44]: > 100 µM
- TGI [45]: > 100 µM
- TGI [57]: > 100 µM
- TGI [58]: > 100 µM
- TGI [46]: > 100 µM
- TGI [47]: > 100 µM
- TGI [59]: > 100 µM
- TGI [48]: > 100 µM
